Assay results as given in patent US11261186B2, “Biaryl derivative as GPR120 agonist” (LG CHEM, LTD., priority 2014, dated 2022).
pEC50: −log10 of the molar value.

Target: T1, hGPR120 (Homo sapiens, UniProt Q5NUL3)
T1 construct: expressed in transfected cells; host or cells: CHO-K1
T1 sequence (Q5NUL3 1-361): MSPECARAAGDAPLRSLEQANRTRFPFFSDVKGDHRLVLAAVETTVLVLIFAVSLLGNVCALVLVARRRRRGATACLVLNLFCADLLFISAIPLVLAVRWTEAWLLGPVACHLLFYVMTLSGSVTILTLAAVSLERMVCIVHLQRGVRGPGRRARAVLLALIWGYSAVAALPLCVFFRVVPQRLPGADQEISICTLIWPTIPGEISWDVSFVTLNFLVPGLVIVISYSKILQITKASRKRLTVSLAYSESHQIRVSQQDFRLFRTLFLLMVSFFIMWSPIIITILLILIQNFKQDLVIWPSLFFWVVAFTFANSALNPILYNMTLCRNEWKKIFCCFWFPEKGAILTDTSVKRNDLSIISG
Experiment: Measurement of Activity of GPR120 Agonist (Cell-Based Assay), Calcium 5 dye fluorescence
Conditions: CHO-K1 cells expressing Ga16 and hGPR120
How it was run: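 Fluorescence increase (Ex 485 nm, Em 525 nm) after agonist addition was calculated as relative percent of the 1% DMSO-only signal. Cells were CHO-K1 stably carrying Gα16 plus human GPR120, dye-loaded for 1 h after overnight (18 h) culture.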

Structure (SMILES) | pEC50
Oc1cc(COc2c(F)cc(-c3cccnc3SC3CCCC3)cc2F)on1 [Example 65, 5-[[4-(2-cyclopentylsulfanyl-3-pyridyl)-2,6-difluoro-phenoxy]methyl]isoxazol-3-ol] | > 6.70
CC(CCCC(=O)O)c1c(F)cc(-c2cccc(NC3CCCC3)c2)cc1F (stereo not shown) [Example 52, 5-(3′-cyclopentylamino-3,5-difluoro-biphenyl-4-yl)-hexanoic acid] | > 6.70
O=C(O)CCCOc1c(F)cc(-c2cccc(OCC3CC3)c2)cc1F [Example 20, 4-(3′-cyclopropylmethoxy-3,5-difluoro-biphenyl-4-yloxy)-butyric acid] | > 6.70
CCN(CCCCC(=O)O)c1c(F)cc(-c2cccnc2OC2CCCC2)cc1F [Example 95, 5-[4-[2-(cyclopentoxy)-3-pyridyl]-N-ethyl-2,6-difluoro-anilino]pentanoic acid] | 5.70 to 6.70
O=C(O)CC1CCN(c2c(F)cc(-c3nccc(OC4CCC4)n3)cc2F)C1 (stereo not shown) [Example 579, {1-[4-(4-cyclobutoxy-pyrimidin-2-yl)-2,6-difluoro-phenyl]-pyrrolidin-3-yl}-acetic acid] | > 6.70
O=C(O)CC1CCN(c2c(F)cc(-c3cccc(OC4CCC4)n3)cc2F)CC1 [Example 294, 2-[1-[4-[6-(cyclobutoxy)-2-pyridyl]-2,6-difluoro-phenyl]-4-piperidyl]acetic acid] | > 6.70
O=C(O)Cc1cnn(-c2ccc(-c3cccnc3SC3CCC3)cc2)c1 [Example 93, 2-[1-[4-(2-cyclobutylsulfanyl-3-pyridyl)phenyl]pyrazol-4-yl]acetic acid] | 4.70 to 5.70
Cc1cc(OC2CCC2)nc(-c2cc(F)c(OCCCC(=O)O)c(F)c2)n1 [Example 425, 4-[4-(4-cyclobutoxy-6-methyl-pyrimidin-2-yl)-2,6-difluoro-phenoxy]-butyric acid] | > 6.70
O=C(O)CCCOc1ccc(-c2cccnc2OC2CCC2)cc1F [Example 233, 4-[4-(2-cyclobutoxy-pyridin-3-yl)-2-fluoro-phenoxy]-butyric acid] | 5.70 to 6.70
O=C(O)CCC1CCc2cc(-c3cccnc3OC3CCC3)ccc2O1 (stereo not shown) [Example 277, 3-[6-(2-cyclobutoxy-pyridin-3-yl)-chroman-2-yl]-propionic acid] | 5.70 to 6.70
O=C(O)CC1CCN(c2ccc(-c3cccnc3OC3CCCC3)cc2F)CC1 [Example 139, 2-[1-[4-[2-(cyclopentoxy)-3-pyridyl]-2-fluoro-phenyl]-4-piperidyl]acetic acid] | 5.70 to 6.70
O=C(O)CCCCc1c(F)cc(-c2cccnc2OC2CCC2)cc1F [Example 251, 5-[4-(2-cyclobutoxy-pyridin-3-yl)-2,6-difluoro-phenyl]-pentanoic acid] | > 6.70
CC(CCCC(=O)O)c1ccc(-c2cccc(OC3CCC3)n2)cc1 (stereo not shown) [Example 40, 5-[4-(6-cyclobutoxy-2-pyridyl)-phenyl]hexanoic acid] | > 6.70
Cc1cc(-c2cc(F)c(C(C)CCCC(=O)O)c(F)c2)nc(OC2CCC2)n1 (stereo not shown) [Example 418, 5-[4-(2-cyclobutoxy-6-methyl-pyrimidin-4-yl)-2,6-difluoro-phenyl]-hexanoic acid] | > 6.70
O=C(O)CCCOc1c(Cl)cc(-c2cccc(OC3CCC3)n2)cc1Cl [Example 386, 4-[2,6-dichloro-4-[6-(cyclobutoxy)-2-pyridyl]phenoxy]butanoic acid] | > 6.70
O=C(O)CCCC(F)(F)c1ccc(-c2cccc(OC3CCC3)n2)cc1 [Example 186, 5-[4-(6-cyclobutoxy-pyridin-2-yl)-phenyl]-5,5-difluoro-pentanoic acid] | > 6.70
O=C(O)CC1CCN(c2c(F)cc(-c3cccc(COC4CCC4)n3)cc2F)CC1 [Example 313, 2-[1-[4-[6-(cyclobutoxymethyl)-2-pyridyl]-2,6-difluoro-phenyl]-4-piperidyl]acetic acid] | < 4.70
O=C(O)CCC1CC1c1c(F)cc(-c2cccc(OC3CCC3)n2)cc1F (stereo not shown) [Example 180, 3-{2-[4-(6-cyclobutoxy-pyridin-2-yl)-2,6-difluoro-phenyl]-cyclopropyl}-propanoic acid] | > 6.70
Cc1cc(OC2CCC2)nc(-c2cc(F)c(OCC3CC3C(=O)O)c(F)c2)c1 (stereo not shown) [Example 548, 2-[4-(6-cyclobutoxy-4-methyl-pyridin-2-yl)-2,6-difluoro-phenoxymethyl]-cyclopropanecarboxylic acid] | > 6.70
CC(C)Oc1cccc(-c2cc(F)c(OCc3cc(O)no3)c(F)c2)n1 [Example 71, 5-[[2,6-difluoro-4-(6-isopropoxy-2-pyridyl)phenoxy]methyl]isoxazol-3-ol] | > 6.70

The next lines start with the values.

pEC50 | Structure (SMILES)
5.70 to 6.70 | CNc1ccccc1-c1cc(F)c(N(C)CCCC(=O)O)c(F)c1 [Example 222, 4-[(3,5-difluoro-2′-methylamino-biphenyl-4-yl)-methyl-amino]-butyric acid]
> 6.70 | O=C(O)CCCOc1c(F)cc(-c2sccc2COCC2CC2)cc1F [Example 574, 4-[4-(3-cyclopropylmethoxymethyl-thiophen-2-yl)-2,6-difluoro-phenoxy]-butanoic acid]
> 6.70 | CN(CCCC(=O)O)c1c(F)cc(-c2cccc(OCC3CCC3)n2)cc1F [Example 522, 4-{[4-(6-cyclobutylmethoxy-pyridin-2-yl)-2,6-difluoro-phenyl]-methyl-amino}-butyric acid]
4.70 to 5.70 | COc1ccc(-c2ccc3c(c2)CCC(CCC(=O)O)O3)c2c1OC(C)(C)C2 (stereo not shown) [Example 273, 3-[6-(7-methoxy-2,2-dimethyl-2,3-dihydro-benzofuran-4-yl)-chroman-2-yl]-propionic acid]
5.70 to 6.70 | CC1(C)Cc2cc(Cl)cc(-c3ccc4c(c3)CCC(CCC(=O)O)S4)c2O1 (stereo not shown) [Example 282, 3-[6-(5-chloro-2,2-dimethyl-2,3-dihydro-benzofuran-7-yl)-thiochroman-2-yl]-propionic acid]
> 6.70 | CN(CCCC(=O)O)c1c(F)cc(-c2cc(Cl)cc3c2OC(C)(C)C3)cc1F [Example 255, 4-{[4-(5-chloro-2,2-dimethyl-2,3-dihydro-benzofuran-7-yl)-2,6-difluoro-phenyl]-methyl-amino}-butyric acid]
> 6.70 | Cc1ccc(Oc2ccnc(-c3cc(F)c(N4CCC(CC(=O)O)CC4)c(F)c3)n2)cc1 [Example 516, 2-[1-[4-[4-(p-tolyloxy)pyrimidin-2-yl]-2,6-difluoro-phenyl]-4-piperidyl]acetic acid]
5.70 to 6.70 | O=C(O)CCCSc1ccc(-c2cccc3c2OC2(CCCC2)O3)cc1 [Example 156, 4-(4-spiro[1,3-benzodioxol-2,1′-cyclopentane]-4-ylphenyl)sulfanylbutanoic acid]
> 6.70 | CC(C)Sc1ncccc1-c1cc(F)c(N2CCC(CC(=O)O)CC2)c(F)c1 [Example 104, 2-[1-[2,6-difluoro-4-(2-isopropylsulfanyl-3-pyridyl)phenyl]-4-piperidyl]acetic acid]
> 6.70 | O=C(O)C[C@@H]1CCN(c2c(F)cc(-c3cccc(OCC4CC4)n3)cc2F)C1 [Example 604, {(S)-1-[4-(6-cyclopropylmethoxy-pyridin-2-yll)-2,6-difluoro-phenyl]-pyrrolidin-3-yl}-acetic acid]
5.70 to 6.70 | O=C(O)CC1CCN(c2c(F)cc(-c3nccc(Oc4ccc(Cl)cc4)n3)cc2F)C1 (stereo not shown) [Example 509, 2-[1-[4-[4-(4-chlorophenoxy)pyrimidin-2-yl]-2,6-difluoro-phenyl]-pyrrolidin-3-yl]acetic acid]
> 6.70 | COc1ccc(-c2cc(F)c(SCCCC(=O)O)c(F)c2)c2c1OC(C)(C)C2 [Example 258, 4-[2,6-difluoro-4-(7-methoxy-2,2-dimethyl-2,3-dihydro-benzofuran-4-yl)-phenylsulfanyl]-butyric acid]
5.70 to 6.70 | O=C(O)CC1CCN(c2c(F)cc(-c3cccnc3SC3CCC3)cc2F)CC1 [Example 118, 2-[1-[4-(2-cyclobutylsulfanyl-3-pyridyl)-2,6-difluoro-phenyl]-4-piperidyl]acetic acid]
> 6.70 | CC(C)Oc1cccc(-c2cc(F)c(N3CCC(CC(=O)O)C3)c(F)c2)n1 (stereo not shown) [Example 563, {1-[2,6-difluoro-4-(6-isopropoxy-pyridin-2-yl)-phenyl]-pyrrolidin-3-yl}-acetic acid]
4.70 to 5.70 | O=C(O)CC1CCN(c2c(F)cc(-c3cncc(N4CCCC4)n3)cc2F)CC1 [Example 353, 2-[1-[2,6-difluoro-4-(6-pyrrolidin-1-ylpyrazin-2-yl)phenyl]-4-piperidyl]acetic acid]
5.70 to 6.70 | CCOc1cccc(-c2cc(F)c(N3CCC(CC(=O)O)CC3)c(F)c2)n1 [Example 314, 2-[1-[4-(6-ethoxy-2-pyridyl)-2,6-difluoro-phenyl]-4-piperidyl]acetic acid]
5.70 to 6.70 | COc1ccc(-c2ccc3c(c2)CCC(CCC(=O)O)S3)c2c1OC(C)(C)C2 (stereo not shown) [Example 274, 3-[6-(7-methoxy-2,2-dimethyl-2,3-dihydro-benzofuran-4-yl)-thiochroman-2-yl]-propionic acid]
> 6.70 | O=C(O)CCCOc1c(F)cc(-c2nccc(OCC3CC3)n2)cc1Cl [Example 428, 4-[2-chloro-4-(4-cyclopropylmethoxy-pyrimidin-2-yl)-6-fluoro-phenoxy]-butyric acid]
4.70 to 5.70 | O=C(O)COCC(F)(F)c1ccc(-c2cccnc2OC2CCCC2)cc1 [Example 172, {2-[4-(2-cyclopentyloxy-pyridin-3-yl)-phenyl]-2,2-difluoro-ethoxy}-acetic acid]
> 6.70 | O=C(O)CCCOc1ccc(-c2cccnc2OC2CCCC2)cc1F [Example 234, 4-[4-(2-cyclopentyloxy-pyridin-3-yl)-2-fluoro-phenoxy]-butyric acid]
